Laboratory results reported in US10723741B1, “DNA polymerase IIIC inhibitors and use thereof” (Acurx Pharmaceuticals, LLC, priority 2018, dated 2020).
≈ marks a conversion by molar mass, not a printed value. Where two headings read alike, the source gives them in different places.

How the values were obtained:
Format in all cases: cell-based
[1] = tested on: Staphylococcus aureus NRS384 (MRSA); assay: Broth microdilution MIC, S. aureus NRS384 (MRSA); design: MIC NRS 384 (MRSA): unit not given here; settings: broth microdilution, 37° C., 20 hours; for MIC: Staphylococcus aureus
Excerpt: (§1) Bacteria tested are Staphylococcus aureus NRS384 (a methicillin-resistant Staphylococcus aureus, MRSA), Staphylococcus aureus ATCC 29213 (a methicillin-sensitive Staphylococcus aureus, MSSA), Streptococcus pneumoniae ATCC 49619, Enterococcus faecalis ATCC 29212, Enterococcus faecium ATCC 700221 (a vancomycin-resistant enterococcus, VRE), Bacillus subtilis ATCC 6633, and Escherichia coli ATCC 25922.
(§2) Staphylococcus aureus NRS384 was obtained from NARSA (Network on Antimicrobial Resistance in Staphylococcus aureus, now the strain collection is in BEI resources). Other bacterial isolates were from ATCC (The American Type Culture Collection). Upon receiving the bacteria samples from aforementioned institutes, the bacteria were cultured according to the manuals provided by the suppliers. The bacteria were stored in 25% glycerol (final concentration) at −80° C.
(§3) On the day of testing, the compounds were dissolved in pure DMSO (Sigma 276855-1L) to […] as stock. In a v-bottom 96-well plate (Axygen-wipp02280), 20 μl DMSO was added into well 2 to well 12 by manual pipetting. Into well 1, 12.8 μL of compound DMSO stock (20 mg/ml) was added and mixed with 27.2 μl DMSO by pipetting. Two fold serial dilutions were performed by transferring and mixing 20 μl of solution from well 1 to well 2, then well 2 to well 3 and so forth until well 11. The well 12 was loaded with 20 μl DMSO without compounds. This was drug ‘mother plate’. From well 1 to well 12, the drug concentrations in the mother plate were […] in DMSO. A multi-pipette was used to perform the serial dilutions. The concentration may be adjusted according to the potency of the compounds. An Echo® Acoustic liquid handling system may be used to replace manual pipetting to make the daughter plates.
(§4) One day prior to the day of MIC testing, bacterial strains were streaked out from −80° C. glycerol stocks onto MHA plates and incubated at 37° C. for 20 hours. Streptococcus pneumoniae was streaked on blood agar and incubated at 37° C. in 5% CO2. The single colonies were picked by using an inoculation loop (Greiner-731175) and suspended into 5 ml sterile saline. The turbidity of the suspension was adjusted to 0.10 (Siemens MicroScan turbidity meter), equal to ˜1.0×10^8 cfu/ml. The bacterial suspension was diluted 200× in corresponding test medium (Table 1). This was used to inoculate daughter plates.
(§5) For preparing u-bottom 96-well ‘daughter plates’ (Costar 3788), an aliquot of 1 μl solution from mother plate was then replicating transferred into the daughter plate using a multi-pipette.
(§6) An aliquot of 99 μl of the bacterial suspension was inoculated into each well of the daughter plates using a multi-pipette. Each well contained ˜5.0×10^5 cfu/ml bacteria, 1% DMSO and serially diluted compounds at 64, 32, 16, 8, 4, 2, 1, 0.5, 0.25, 0.125, 0.0625 and 0 μg/ml from well 1 to well 12 respectively, in 100 μl corresponding test medium.
(§7) The plates were incubated in ambient atmosphere and in a 37° C. incubator for 20 hours.
(§8) Compounds of the present invention were tested for antibacterial activity against a variety of bacterial organism including Bacillus subtilis, Staphylococcus aureus, Enterococcus faecalis, Enterococcus faecium, Streptococcus pneumoniae and Escherichia coli. […] Compounds described in Examples 2, 44, 53, 56, 90, 134, 212, 213, 214, 218, 222, 304, 305, and 307 had MIC of ≤1 μg/ml against S. aureus NRS 384 (MRSA) (μg/ml) and E. faecium ATCC 700221 (VRE) (μg/ml).

[2] = tested on: Streptococcus pneumoniae ATCC 49619; assay: Broth microdilution MIC, S. pneumoniae ATCC 49619; settings: ATCC49619, broth microdilution, 37° C., 20 hours, read-out: MIC S. pneumoniae ATCC 49619
Excerpt: as §1, §2, §3, §4, §5, §6, §7, §8

[3] = tested on: Bacillus subtilis ATCC 6633; assay: Broth microdilution MIC, B. subtilis ATCC 6633; settings: ATCC6633, broth microdilution, 37° C., 20 hours, read-out: MIC B. subtilis ATCC 6633
Excerpt: as §1, §2, §3, §4, §5, §6, §7, §8

[4] = tested on: Escherichia coli ATCC 25922; assay: Broth microdilution MIC, E. coli ATCC 25922 (MHIIB w & w/o 4 mM EDTA); settings: broth microdilution, 37° C., 20 hours; for MIC: Escherichia coli, ATCC25922, without EDTA, read-out: MIC E. coli ATCC 25922; for MIC E. coli ATCC 25922 + 4 mM EDTA: with 4 mM EDTA
Excerpt: as §1, §2, §3, §4, §5, §6, §7, §8

[5] = tested on: Enterococcus faecalis ATCC 29212; assay: Broth microdilution MIC, E. faecalis ATCC 29212; settings: ATCC29212, broth microdilution, 37° C., 20 hours, read-out: MIC E. faecalis ATCC 29212
Excerpt: as §1, §2, §3, §4, §5, §6, §7, §8

[6] = tested on: Enterococcus faecium ATCC 700221 (VRE); assay: Broth microdilution MIC, E. faecium ATCC 700221 (VRE); design: MIC E. faecium ATCC 700221 (VRE): unit: ug/mL; settings: broth microdilution, 37° C., 20 hours; for MIC: Enterococcus faecium
Excerpt: as §1, §2, §3, §4, §5, §6, §7, §8

[7] = tested on: Staphylococcus aureus ATCC 29213 (MSSA); assay: Broth microdilution MIC, S. aureus ATCC 29213 (MSSA); settings: broth microdilution, 37° C., 20 hours, read-out: MIC S. aureus ATCC 29213 (MSSA)
Excerpt: as §1, §2, §3, §4, §5, §6, §7, §8

[8] = read-out: MIC E. faecium ATCC 700221 (VRE)
[9] = S. aureus NRS 384, read-out: MIC NRS 384 (MRSA)

Compound	MIC ([1]; read-out: MIC NRS 384 (MRSA))	MIC [2]	MIC [3]	MIC [4]	MIC E. coli ATCC 25922 + 4 mM EDTA [4]	MIC [5]	MIC [6, 8]	MIC [7]	MIC ([1]; MHIIB, read-out: MIC against S. aureus NRS 384 (MRSA))	MIC ([6]; MHIIB, read-out: MIC against E. faecium ATCC 700221 (VRE))	MIC [1, 9]	MIC NRS 384 (MRSA) [1]	MIC E. faecium ATCC 700221 (VRE) [6]
O=c1[nH]c(NCc2ccc(Cl)c(Cl)c2)nc2cnn(Cc3nccs3)c12 [Compound 91, 5-((3,4-Dichlorobenzyl)amino)-1-(thiazol-2-ylmethyl)-1H-pyrazolo[4,3-d]pyrimidin-7(6H)-one]	2 µg/mL (≈ 4.91 µM)	4 µg/mL (≈ 9.82 µM)	1 µg/mL (≈ 2.46 µM)	> 64 µg/mL	32 µg/mL	4 µg/mL (≈ 9.82 µM)	2 µg/mL (≈ 4.91 µM)	4 µg/mL (≈ 9.82 µM)					
CC(=O)OCCCCn1ncc2nc(NCc3ccc(Cl)c(Cl)c3)[nH]c(=O)c21 [Compound 90, 4-(5-((3,4-Dichlorobenzyl)amino)-7-oxo-6,7-dihydro-1H-pyrazolo[4,3-d]pyrimidin-1-yl)butyl acetate]	1 µg/mL	2 µg/mL	0.5 µg/mL	> 64 µg/mL	>64 µg/mL	2 µg/mL	1 µg/mL	2 µg/mL	≤ 1 µg/mL	≤ 1 µg/mL			
CN1CCCC(c2nc(Cn3ncc4nc(NCc5ccc(Cl)c(Cl)c5)[nH]c(=O)c43)co2)C1.Cl (stereo not shown) [Compound 172, 5-((3,4-dichlorobenzyl)amino)-1-((2-(1-methylpiperidin-3-yl)oxazol-4-yl)methyl)-1H-pyrazolo[4,3-d]pyrimidin-7(6H)-one hydrochloride]	16 µg/mL	8 µg/mL	4 µg/mL	> 64 µg/mL	64 µg/mL	16 µg/mL	8 µg/mL	16 µg/mL					
Cn1ncc2nc(NCc3cnco3)[nH]c(=O)c21 [Compound 21, 1-Methyl-5-((oxazol-5-ylmethyl)amino)-1H-pyrazolo[4,3-d]pyrimidin-7(6H)-one]	> 64 µg/mL	> 64 µg/mL	> 64 µg/mL	> 64 µg/mL	>64 µg/mL	> 64 µg/mL	> 64 µg/mL	> 64 µg/mL					
Cc1ccc(CNc2nc3c(F)nn(CCOCCO)c3c(=O)[nH]2)cc1F [Compound 313, 3-Fluoro-5-((3-fluoro-4-methylbenzyl)amino)-1-(2-(2-hydroxyethoxy)ethyl)-1H-pyrazolo[4,3-d]pyrimidin-7(6H)-one]		8 µg/mL (≈ 21.1 µM)	2 µg/mL (≈ 5.27 µM)	> 64 µg/mL	>64 µg/mL	16 µg/mL (≈ 42.2 µM)	8 µg/mL (≈ 21.1 µM)	8 µg/mL (≈ 21.1 µM)			16 µg/mL (≈ 42.2 µM)		
O=C1CC(Cn2ncc3nc(NCc4ccc(Cl)c(Cl)c4)[nH]c(=O)c32)CN1CCO (stereo not shown) [Compound 177, 5-((3,4-dichlorobenzyl)amino)-1-((1-(2-hydroxyethyl)-5-oxopyrrolidin-3-yl)methyl)-1H-pyrazolo[4,3-d]pyrimidin-7(6H)-one]	64 µg/mL (≈ 142 µM)	4 µg/mL (≈ 8.86 µM)	16 µg/mL (≈ 35.5 µM)	> 64 µg/mL	>64 µg/mL	32 µg/mL (≈ 70.9 µM)	16 µg/mL (≈ 35.5 µM)	64 µg/mL (≈ 142 µM)					
Cc1noc(C)c1C(=O)N(C)CCn1ncc2nc(NCc3ccc(Cl)c(Cl)c3)[nH]c(=O)c21 [Compound 80, N-(2-(5-((3,4-dichlorobenzyl)amino)-7-oxo-6,7-dihydro-1H-pyrazolo[4,3-d]pyrimidin-1-yl)ethyl)-N,3,5-trimethylisoxazole-4-carboxamide]	32 µg/mL (≈ 65.3 µM)	8 µg/mL (≈ 16.3 µM)	16 µg/mL (≈ 32.6 µM)	> 64 µg/mL	64 µg/mL	32 µg/mL (≈ 65.3 µM)	16 µg/mL (≈ 32.6 µM)	32 µg/mL (≈ 65.3 µM)					
COCCn1nc(F)c2nc(NCc3ccc(F)c(F)c3)[nH]c(=O)c21 [Compound 308, 5-((3,4-Difluorobenzyl)amino)-3-fluoro-1-(2-methoxyethyl)-1H-pyrazolo[4,3-d]pyrimidin-7(6H)-one]		4 µg/mL (≈ 11.3 µM)	2 µg/mL (≈ 5.66 µM)	> 64 µg/mL	>64 µg/mL	8 µg/mL (≈ 22.6 µM)	4 µg/mL (≈ 11.3 µM)	4 µg/mL (≈ 11.3 µM)			4 µg/mL (≈ 11.3 µM)		
Cl.O=c1[nH]c(NCc2ccc(Cl)c(Cl)c2)nc2cnn(CCOCc3cccnc3)c12 [Compound 181, 5-((3,4-Dichlorobenzyl)amino)-1-(2-(pyridin-3-ylmethoxy)ethyl)-1H-pyrazolo[4,3-d]pyrimidin-7(6H)-one hydrochloride]		4 µg/mL	1 µg/mL	> 64 µg/mL	>64. ug/ml	8 µg/mL		4 µg/mL				4/2	4/1
COC(=O)C(C)n1ncc2nc(NCc3ccc(Cl)c(Cl)c3)[nH]c(=O)c21 (stereo not shown) [Compound 227, Methyl 2-(5-((3,4-dichlorobenzyl)amino)-7-oxo-6,7-dihydro-1H-pyrazolo[4,3-d]pyrimidin-1-yl)propanoate]	8 µg/mL (≈ 20.2 µM)	16 µg/mL (≈ 40.4 µM)	4 µg/mL (≈ 10.1 µM)	> 64 µg/mL	32 µg/mL	16 µg/mL (≈ 40.4 µM)	4 µg/mL (≈ 10.1 µM)	8 µg/mL (≈ 20.2 µM)					
